Assay results published in patent US5236937A, “Pyridinyl compounds which are useful as angiotensin II antagonists” (Imperial Chemical Industries PLC, priority 1991, dated 1993).

Test system: angiotensin II-induced pressor responses
Test: Test C: inhibition of angiotensin II-induced pressor responses in terminally-anaesthetised or conscious rats
Assay type: in vivo
Conditions: iv, rat, i.v. administration
Excerpt: The antagonism of one or more of the physiological actions of AII and, in particular, the antagonism of the interaction of AII with the receptors which mediate its effects on a target tissue, may be assessed using one or more of the following, routine laboratory procedures: Test C: This in vivo test involves using terminally-anaesthetised or conscious rats in which an arterial catheter has been implanted under anaesthesia for the measurement of changes in blood pressure. The AII antagonistic effects of the test compound following oral or parenteral administration, are assessed against angiotensin II-induced pressor responses. To ensure that the effect is specific, the effect of the test compound on vasopressin-induced pressor responses may also be determined in the same preparation.

Compound `Cc1cc(NCc2ccc(-c3ccccc3-c3nnn[nH]3)cc2)c(I)c(C)n1.Cl` [Example 1, 2,6-dimethyl-3-iodo-4-[(2'-(1H-tetrazol-5-yl)biphenyl-4-yl)methylamino]pyridine hydrochloride] has an ED50 of 0.047 mg/kg.
